According to paper PMC4877593, “Design and Synthesis of Potent in Vitro and in Vivo Anticancer Agents Based on 1-(3′,4′,5′-Trimethoxyphenyl)-2-Aryl-1H-Imidazole” (Scientific Reports, 2016):
Read-outs that look alike come from different tables or passages of the source.

What was measured:
[1] = tested on: panel of seven human tumor cell lines; assay: Antiproliferative activity across the panel of seven human tumor cell lines; assay type: cell-based
Description: (§1) Human T-cell leukemia (CCRF-CEM and Jurkat) and human B-cell leukemia (SEM) cells were grown in RPMI-1640 medium (Gibco, Milano, Italy). Breast adenocarcinoma (MCF7), human cervix carcinoma (HeLa), and human colon adenocarcinoma (HT-29) cells were grown in DMEM medium (Gibco, Milano, Italy), all supplemented with 115 units/mL penicillin G (Gibco, Milano, Italy), 115 μg/mL streptomycin (Invitrogen, Milano, Italy), and 10% fetal bovine serum (Invitrogen, Milano, Italy). Stock solutions (10 mM) of the different compounds were obtained by dissolving them in dimethyl sulfoxide (DMSO). Individual wells of a 96-well tissue culture microtiter plate were inoculated with 100 μL of complete medium containing 8 × 10^3 cells. The plates were incubated at 37 °C in a humidified 5% CO2 incubator for 18 h prior to the experiments. After medium removal, 100 μL of fresh medium containing the test compound at different concentrations was added to each well in triplicate and incubated at 37 °C for 72 h. The percentage of DMSO in the medium never exceeded 0.25%. This was also the maximum DMSO concentration in all cell-based assays described below. […] Different concentrations of the test compounds were added, and viability was determined 72 h later by the MTT test. For cytotoxicity evaluations in resting PBL cultures, non-adherent cells were resuspended (5 × 10^5 cells/mL) and treated for 72 h with the test compounds, as described above.

bovine brain tubulin = assay: Inhibition of tubulin polymerization (turbidimetry); assay type: biochemical
Description: To evaluate the effect of the compounds on tubulin assembly in vitro[22], varying concentrations of compounds were preincubated with 10 μM bovine brain tubulin in glutamate buffer at 30 °C and then cooled to 0 °C. After addition of 0.4 mM GTP (final concentration), the mixtures were transferred to 0 °C cuvettes in a recording spectrophotometer equipped with an electronic temperature controller and warmed to 30 °C. Tubulin assembly was followed turbidimetrically at 350 nm. […] The ability of the test compounds to inhibit colchicine binding to tubulin was measured as described, except that the reaction mixtures contained 1 μM tubulin, 5 μM [^3H]colchicine and 1 or 5 μM test compound.

A549 = assay: In vitro antiproliferative activity (MTT), A549; assay type: cell-based; conditions: Homo sapiens, tumor cell proliferation, 72 h, mean ± SE
Description: as §1

MCF-7 = assay: In vitro antiproliferative activity (MTT), MCF-7; assay type: cell-based; conditions: Homo sapiens, MCF7, tumor cell proliferation, 72 h, mean ± SE
Description: as §1

HL-60 = assay: In vitro antiproliferative activity (MTT), HL-60; assay type: cell-based; conditions: Homo sapiens, tumor cell proliferation, 72 h, mean ± SE
Jurkat = assay: In vitro antiproliferative activity (MTT), Jurkat; assay type: cell-based; conditions: Homo sapiens, tumor cell proliferation, 72 h, mean ± SE
Description: as §1

[2] = tested on: HCT-15 (human colon adenocarcinoma); conditions: cited from earlier work
tubulin = assay: Inhibition of [3H]colchicine binding to tubulin; design: species or system bovine; conditions: tubulin 1 μM, [3H]colchicine 5 μM
Description: The ability of the test compounds to inhibit colchicine binding to tubulin was measured as described[22], except that the reaction mixtures contained 1 μM tubulin, 5 μM [^3H]colchicine and 1 or 5 μM test compound.

HeLa = assay: In vitro antiproliferative activity (MTT), HeLa; assay type: cell-based; conditions: Homo sapiens, tumor cell proliferation, 72 h, mean ± SE
Description: as §1

[3] = tested on: NCI-H460 (human lung large cell carcinoma); conditions: cited from earlier work
RS4;11 = assay: In vitro antiproliferative activity (MTT), RS4;11; assay type: cell-based; conditions: Homo sapiens, tumor cell proliferation, 72 h, mean ± SE
HT-29 = assay: In vitro antiproliferative activity (MTT), HT-29; assay type: cell-based; conditions: Homo sapiens, tumor cell proliferation, 72 h, mean ± SE
Description: as §1

IC50 ([1]; average over the seven cell lines, read-out: average IC50 values): 15 nM
IC50 ([1]; range over seven cancer cell lines, read-out: IC50 values in the seven cell lines (range)): 2 to 62.3 nM
IC50 (bovine brain tubulin; repeated beside the calculated energies, read-out: inhibition of tubulin polymerization IC50 (Table 4)): 1800 nM
IC50 (bovine brain tubulin; tubulin at 10 μM, 20 min incubation, read-out: Tubulin assembly IC50 ± S.D.): 1800 nM
IC50 (A549): 7.1 ± 1.5 nM
IC50 (MCF-7): 4.6 ± 2.3 nM
IC50 (HL-60): 24 ± 12.1 nM
IC50 (Jurkat): 2.5 ± 0.9 nM
Colchicine binding % inhibition ± S.D., 5 μM drug (tubulin): 65 ± 4%
IC50 (HeLa): 2 ± 0.14 nM
IC50 (RS4;11): 62.3 ± 10.3 nM
IC50 (HT-29): 3.6 ± 0.9 nM
Structure (SMILES): COc1cc(-n2ccnc2-c2ccc3ccccc3c2)cc(OC)c1OC [Compound 3c, reference compound]
IC50 [2]: 51 nM
IC50 [3]: 57 nM
